From patent US11351178B2, “Selective HDAC6 inhibitors” (ITALFARMACO S.P.A., priority 2017, dated 2022) come the findings set out here.

pIC50: −log10 of the molar value. Where two headings read alike, the source gives them in different places.

One data set deals with T1, HDAC7 (Homo sapiens, UniProt Q8WUI4).
T1 construct: purchased BPS 50007
T1 sequence (Q8WUI4 518-952 limits assumed): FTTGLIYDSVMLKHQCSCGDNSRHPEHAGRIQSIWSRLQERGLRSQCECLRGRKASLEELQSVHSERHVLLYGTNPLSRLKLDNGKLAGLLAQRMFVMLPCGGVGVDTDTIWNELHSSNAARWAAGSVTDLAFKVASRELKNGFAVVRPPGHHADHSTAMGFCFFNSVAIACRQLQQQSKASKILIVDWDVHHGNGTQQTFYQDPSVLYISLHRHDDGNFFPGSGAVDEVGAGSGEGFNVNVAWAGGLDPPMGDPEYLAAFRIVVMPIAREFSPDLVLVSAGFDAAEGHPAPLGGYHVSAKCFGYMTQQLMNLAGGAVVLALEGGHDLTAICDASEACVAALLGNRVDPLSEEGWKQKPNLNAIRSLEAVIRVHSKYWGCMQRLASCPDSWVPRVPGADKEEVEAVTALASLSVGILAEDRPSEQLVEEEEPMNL
Description: Enzymatic test HDAC7. Type of data set: biochemical. The note with it: Table 3. The procedure: (§1) After a period of incubation at 30° C. (incubation times vary for different isoforms and are shown in table 1) 25 μL of solution containing the substrate were added. As substrate, FLUOR DE LYS® deacetylase substrate (Enzo Life Sciences, cat #BML-K1104, FdL), FLUOR DE LYS®-Green substrate (Enzo Life Sciences, cat #BML-K1572 FdL_G) and trifluoroacetyl-L-lysine (Tfal)-2× concentrated solution in 25 mM Tris-HCl, pH 8, 130 mM NaCl 0.05% Tween-20 10% glycerol) were used. Following a reaction period at 30° C.

In the next data set the target is T2, HDAC9 (Homo sapiens, UniProt Q9UKV0).
T2 construct: purchased BPS 50009
In words: Enzymatic test HDAC9. The note with it: Table 3. Type of data set: biochemical. Here is the method: as §1

A further data set has as its target T3, HDAC10 (Homo sapiens, UniProt Q969S8).
T3 construct: purchased BPS 50010
T3 sequence (Q969S8 1-669): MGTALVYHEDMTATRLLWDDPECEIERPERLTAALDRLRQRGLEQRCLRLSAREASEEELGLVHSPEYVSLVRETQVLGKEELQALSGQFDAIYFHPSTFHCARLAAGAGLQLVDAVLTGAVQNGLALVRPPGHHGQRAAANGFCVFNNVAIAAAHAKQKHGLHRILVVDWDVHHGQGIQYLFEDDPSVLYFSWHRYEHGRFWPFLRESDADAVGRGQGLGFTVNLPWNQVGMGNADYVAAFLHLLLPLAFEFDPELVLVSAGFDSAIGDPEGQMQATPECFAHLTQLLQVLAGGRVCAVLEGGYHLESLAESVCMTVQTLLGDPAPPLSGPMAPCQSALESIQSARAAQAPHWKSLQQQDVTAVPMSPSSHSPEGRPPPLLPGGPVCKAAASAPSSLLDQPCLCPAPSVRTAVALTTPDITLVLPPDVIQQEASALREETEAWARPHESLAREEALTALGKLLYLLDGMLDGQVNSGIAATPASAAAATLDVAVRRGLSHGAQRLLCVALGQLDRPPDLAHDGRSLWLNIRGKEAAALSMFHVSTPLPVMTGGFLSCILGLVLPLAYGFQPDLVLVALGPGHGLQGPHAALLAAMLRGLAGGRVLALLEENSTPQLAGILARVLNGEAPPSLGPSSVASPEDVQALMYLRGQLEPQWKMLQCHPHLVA
In words: Enzymatic test HDAC10. The note with it: Table 3. The format is biochemical.

Data set [1] can be described thus: Stability in human plasma. Type of data set: in vitro ADME. The note with it: after 4 hours, 37° C. Summed up:
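Compounds incubated at 37° C in rat or human plasma at 50 μM (UV/HPLC) or 1 or 2 μM (LC-MS/MS) for 0–4 h. Reaction stopped with acidified acetonitrile on ice; percent remaining versus initial amount and plasma half-life calculated.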

The subject of data set [2] is B 697 promyelocytic cell line. In words: Cytotoxicity on 697 cell line (CellTiter 96). Type of data set: cell-based. The note with it: 72 hours incubation, read-out: 697 TOXICITY
Summed up: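 Mitochondrial-function readout (CellTiter 96 Aqueous One) after 72 h compound exposure, begun 24 h post-seeding. Dose ranges: 697 cells, 1 to 10000 nM at 2×10^4 cells/well; PBMCs, 1.5 to 10000 nM at 5×10^5 cells/well.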

Another data set relates to human PBMCs. In words: Mixed Lymphocytes Reaction (MLR) with human PBMCs (IFN-γ, TNF-α, IL-6). Type of data set: cell-based. The note with it: PBMC, 144 h, two-way MLR, 6 days, 1 μM, negative = induction. Summed up:
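Two-way MLR: PBMCs from two healthy donors mixed 1:1, 2×10^5 cells/well in RPMI 1640 + 10% FBS, cultured 6 days at 37 °C with test compound; single-donor wells as syngeneic control. IFN-γ, TNF-α, IL-6 measured in supernatant; values are % inhibition, negative meaning induction.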

Another data set addresses T4, HDAC2 (Homo sapiens, UniProt Q92769).
T4 construct: purchased BPS 50002
In words: Enzymatic test HDAC2. The format is biochemical. The note with it: Table 3.

The mark [3] stands for this setting: read-out: MLR IFN-γ inhibition percentage.
Where [4] appears, read: read-out: MLR IL-6 inhibition percentage.
The mark [5] stands for this setting: read-out: MLR TNF-α inhibition percentage.

By inhibition is commonly meant the relative decrease from the control value, in per cent.

T4 sequence (Q92769 whole entry): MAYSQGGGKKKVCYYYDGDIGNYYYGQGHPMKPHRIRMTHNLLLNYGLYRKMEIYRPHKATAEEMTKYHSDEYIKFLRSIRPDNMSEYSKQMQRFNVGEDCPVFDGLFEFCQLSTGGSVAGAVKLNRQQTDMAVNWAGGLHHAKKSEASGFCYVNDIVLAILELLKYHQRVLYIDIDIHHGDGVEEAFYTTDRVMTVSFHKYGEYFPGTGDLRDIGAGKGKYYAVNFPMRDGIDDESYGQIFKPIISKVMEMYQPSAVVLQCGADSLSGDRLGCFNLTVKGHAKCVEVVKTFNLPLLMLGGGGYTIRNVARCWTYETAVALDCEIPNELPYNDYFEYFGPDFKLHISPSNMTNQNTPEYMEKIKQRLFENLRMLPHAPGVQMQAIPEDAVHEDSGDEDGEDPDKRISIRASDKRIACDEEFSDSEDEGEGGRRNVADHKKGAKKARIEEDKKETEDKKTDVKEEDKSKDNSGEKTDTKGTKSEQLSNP
T2 sequence (Q9UKV0 1-1066 isoform Q9UKV0-5): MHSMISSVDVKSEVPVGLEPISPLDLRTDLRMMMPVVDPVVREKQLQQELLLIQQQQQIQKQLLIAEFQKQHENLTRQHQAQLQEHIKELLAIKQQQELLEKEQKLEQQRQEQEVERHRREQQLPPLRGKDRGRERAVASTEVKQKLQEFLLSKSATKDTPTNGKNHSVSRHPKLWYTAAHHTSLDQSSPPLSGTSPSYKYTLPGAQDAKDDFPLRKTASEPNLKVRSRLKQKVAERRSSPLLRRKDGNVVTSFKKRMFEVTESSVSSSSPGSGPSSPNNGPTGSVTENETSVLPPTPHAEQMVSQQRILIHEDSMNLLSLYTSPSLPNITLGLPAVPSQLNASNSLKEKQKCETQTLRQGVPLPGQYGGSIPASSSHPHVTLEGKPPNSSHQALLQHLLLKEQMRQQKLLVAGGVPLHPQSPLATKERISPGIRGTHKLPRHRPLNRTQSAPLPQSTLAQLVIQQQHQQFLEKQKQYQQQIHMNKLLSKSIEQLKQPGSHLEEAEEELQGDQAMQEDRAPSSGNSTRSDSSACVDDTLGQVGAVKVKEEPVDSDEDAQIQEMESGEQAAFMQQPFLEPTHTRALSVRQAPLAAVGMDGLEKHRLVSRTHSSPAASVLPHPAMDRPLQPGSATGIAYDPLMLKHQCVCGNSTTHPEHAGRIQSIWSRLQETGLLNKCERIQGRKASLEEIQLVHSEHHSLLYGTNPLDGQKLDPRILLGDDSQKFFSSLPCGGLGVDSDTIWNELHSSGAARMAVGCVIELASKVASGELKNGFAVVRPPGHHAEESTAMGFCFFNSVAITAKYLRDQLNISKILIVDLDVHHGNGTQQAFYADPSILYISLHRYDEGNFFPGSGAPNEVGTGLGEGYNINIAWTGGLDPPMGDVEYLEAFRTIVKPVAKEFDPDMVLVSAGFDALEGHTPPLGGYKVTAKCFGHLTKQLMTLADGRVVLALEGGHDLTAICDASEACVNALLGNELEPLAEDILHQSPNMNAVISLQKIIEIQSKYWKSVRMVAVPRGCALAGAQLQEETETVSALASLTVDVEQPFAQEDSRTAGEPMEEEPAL

Regarding `O=C(NO)c1cc(F)c(Cn2nnc(-c3ccccn3)n2)c(F)c1` [comp. 6, 3,5-difluoro-N-hydroxy-4-((5-(pyridin-2-yl)-2H-tetrazol-2-yl)methyl)benzamide], the pIC50 at HDAC7 is 6.12; on HDAC9, 6.12; against HDAC10, 4.96; in data set [2], < 5.00; on HDAC2, 4.56. Also, in data set [1], the “residual percentage in human plasma” value stood at 96%. For the same compound, the inhibition at 1 µM with human PBMCs (setting [3]) is -6.5%; with human PBMCs (setting [4]), 15.5%; with human PBMCs (setting [5]), 13.5%.
As to `Cn1c(Sc2ccc(C(=O)NO)cc2)nnc1-c1cccs1` [comp. 10, N-hydroxy-4-((4-methyl-5-(thiophen-2-yl)-4H-1,2,4-triazol-3-yl)thio)benzamide], the pIC50 against HDAC7 was 6.09; against HDAC9 it was 5.96; at HDAC10, 5.55; in data set [2] it was 5.36; at HDAC2, 5.35. Further, the “residual percentage in human plasma” value in data set [1] amounted to 99%. Besides, the inhibition at 1 µM worked out at 25.6% in the data set on human PBMCs (setting [3]), 20.6% with human PBMCs (setting [4]) and 49.4% in the data set on human PBMCs (setting [5]).
Take `Cn1c(Sc2c(F)cc(C(=O)NO)cc2F)nnc1-c1cccs1` [comp. 17, 3,5-difluoro-N-hydroxy-4-((4-methyl-5-(thiophen-2-yl)-4H-1,2,4-triazol-3-yl)thio)benzamide]: the pIC50 against HDAC7 is 6.26; against HDAC9, 6.30; against HDAC10, 5.16; in data set [2], 5.28; against HDAC2 it was 4.80. In addition, the “residual percentage in human plasma” value in data set [1] is listed as 98%. The values for the inhibition at 1 µM in the data set on human PBMCs (setting [3]), in the data set with human PBMCs (setting [4]) and in the data set with human PBMCs (setting [5]) were 41.6%, 31.2% and 39.4%, respectively.
Take `O=C(NO)c1cc(F)c(Cn2nnc(-c3ccco3)n2)c(F)c1` [comp. 19, 3,5-difluoro-4-((5-(furan-2-yl)-2H-tetrazol-2-yl)methyl)-N-hydroxybenzamide]: the pIC50 against HDAC7 is 5.99; against HDAC9 it was 6.23; at HDAC10, 5.57; in data set [2], 5.93; on HDAC2, 5.02. Also, the “residual percentage in human plasma” value in data set [1] is listed as 100%. Moreover, the inhibition at 1 µM is -7.85% in the data set on human PBMCs (setting [3]), 4.62% in the data set on human PBMCs (setting [4]) and 25.9% in the data set on human PBMCs (setting [5]).
